Legend:
ZNF312b gene = ZNF312b gene expression inhibition by siRNA; assay type: cell-based, human; conditions: compared among three siRNAs, FIG. 3
Description: To investigate the cell proliferation capacity of the stomach cancer cell line after inhibiting the expression of ZNF312b gene, three kinds of siRNAs [si-ZNF312b-1: 5′-GCA CTC TCT GCA TCT CAA C-3′ (SEQ. ID. NO: 6), si-ZNF312b-2: 5′-GTG TGT GGA AAG GTC TTT A-3′ (SEQ. ID. NO: 7), and si-ZNF312b-3′: 5′-GCA GTT CAA GTG CAA TAT C-3′ (SEQ. ID. NO: 8)] comprising 19 nucleotides of ZNF312b nucleotide sequence (SEQ. ID. NO: 1) were constructed, which were used for the investigation of ZNF312b gene expression inhibition.

K-ras / ERK pathway = test: Western blotting of cell proliferation signal pathway after ZNF312b inhibition; assay type: cell-based, human; conditions: stomach cancer cell line transfected with siRNA, FIG. 24
Experimental: First, lysis buffer A [20 mM HEPES (pH7.5), 150 mM NaCl, 1 mM EDTA, 2 mM EGTA, 1% Triton X-100, 10% glycerol, protease cocktail I, II (Sigma, USA)] was added to the cells, which stood at 4° C. for 20 minutes. The cell lysate was transferred into a new tube, followed by centrifugation at 4° C. at 15,000 rpm for 10 minutes to obtain protein. The cell lysate was heated at 95° C. for 10 minutes after adding 5× sample buffer, resulting in gel loading sample which proceeded to SDS PAGE gel electrophoresis. The protein bands separated according to their molecular weights by the above electrophoresis were transferred onto nitrocellulose membrane by using transfer kit (Bio-Rad, USA), followed by blocking for one hour with 5% skim milk. Next, each antibody [HA antibody for the detection of ZNF312b, and tubulin antibody for the detection of the control tubulin] was treated thereto at 4° C. for 12 hours. The membrane was washed with TBST buffer (0.2% Tween 20), and then treated with a secondary antibody for 1 hour. The membrane was washed with TBST and developed using HRP detection kit (AB frontier, Korea).
To investigate whether the signal pathway system involved in the cell proliferation of stomach cancer cell line was affected by inhibition of ZNF312b gene, the present inventors inhibited the expression of ZNF312b in stomach cancer cell line by transfecting the cell line with si-ZNF312b-1. […]

## si-ZNF312b-1: siRNA of 19 nucleotides of ZNF312b sequence, 5′-GCA CTC TCT GCA TCT CAA C-3′ (SEQ. ID. NO: 6) (sense GCACTCTCTGCATCTCAAC; listed as DNA, chemistry not given here)
ZNF312b gene
  ZNF312b gene expression inhibition: highest inhibition activity
K-ras / ERK pathway
  ERK pathway activity (phosphorylation of MEK1/2 and ERK1/2): inactivation of ERK pathway
  K-ras expression: decrease of K-ras expression

Reference: US8278285B2, “Gastric carcinoma gene ZNF312b, a protein translated from the gene, and a diagnostic kit and a screening method for anticancer agents using the same” (Korea Research Institute of Bioscience and Biotechnology, priority 2007, dated 2012)
